Patent publication US20240277670A1, “SAFE USE OF MMP-12 INHIBITOR” (Foresee Pharmaceuticals Co., Ltd., priority 2021, published 2024)

Test: Single ascending dose (SAD) study, safety and tolerability
Type: in vivo, human
Procedure: Eight cohorts of eight subjects each (six on active and two on placebo) were enrolled. Two different oral formulations of the compound of formula (I) were tested. The initial formulation was neat active pharmaceutical ingredient (API) filled in oral capsules of the compound of formula (I) (API-in-Capsule) which was tested at three dose levels: 200 mg, 400 mg, and 800 mg. Subsequently, an improved oral formulation was tested, the amorphous solid dispersion (ASD) of the compound of formula (I) (ASD-in-Capsule) at five dose levels: 50 mg, 100 mg, 200 mg, 350 mg, and 450 mg (FIG. 1).
Safety and tolerability were assessed at pre-specified timepoints throughout the studies by AEs reporting, vital signs measurements, physical examination, laboratory tests, and ECG examinations.
Safety and tolerability data were evaluated for the treated population (all participants who took at least one dose of study medications). […] Descriptive statistics were used to evaluate the safety and tolerability data and for plasma concentrations and PK parameters of the compound of formula (I).

Cc1cccc(COc2ccc(Sc3ccoc3C3NC(=O)NC3=O)cc2)c1 (stereo not drawn) [compound of formula (I)]
Safety and tolerability, overall (across all dose levels studied): safe and generally well-tolerated | Severe or serious AEs (all dose levels and both formulations): No severe or serious AEs were reported | Changes from baseline in weight, vital signs, physical examination, laboratory or ECG data (any time point): No clinically relevant changes
